Measured values reported in patent US8299054B2, “Cyclic 11-beta hydroxysteroid dehydrogenase type 1 inhibitors” (Bristol-Myers Squibb Company, priority 2006, dated 2012).

Target: recombinant human 11beta-HSD1 (Homo sapiens, UniProt P28845)
Experiment: 11β-HSD-1 SPA Enzyme Assay (Scintillation Proximity assay, microsomes of transfected HEK 293 EBNA cells)
Details: not given

recombinant human 11beta-HSD1, sequence (P28845 whole entry): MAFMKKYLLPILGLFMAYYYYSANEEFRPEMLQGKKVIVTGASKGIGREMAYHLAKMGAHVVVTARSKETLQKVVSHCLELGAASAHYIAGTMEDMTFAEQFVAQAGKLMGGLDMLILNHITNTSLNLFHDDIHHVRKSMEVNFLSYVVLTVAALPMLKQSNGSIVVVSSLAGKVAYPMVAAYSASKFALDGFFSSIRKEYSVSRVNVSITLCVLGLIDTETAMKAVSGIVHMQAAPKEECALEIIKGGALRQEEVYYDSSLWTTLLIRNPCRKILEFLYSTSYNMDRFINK

SMILES | IC50
O=C(CC1(c2ccccc2)C2CC3CC1CC(C2)C3O)N1CCC[C@H](O)C1 (single isomer, unassigned) [Example 279] | 260 nM
O=C(CC1(c2ccccc2)C2CC3CC1CC(C2)C3O)N1CCC[C@@H](O)C1 (single isomer, unassigned) [Example 281] | 175 nM
O=C(O)COC1(c2ccc(F)cc2)C2CC3CC(C2)CC1C3 (centres unmarked) [Example 8] | 633 nM
CS(=O)(=O)NC(=O)CC1(c2ccc(F)cc2)C2CC3CC(C2)CC1C3 (centres unmarked) [Example 22] | 159 nM
O=C(CC1(c2ccccc2)C2CC3CC1CC(C2)C3O)N1CC(c2nnc3ccccn23)C1 (centres unmarked) [Example 35] | 636 nM
O=C(O)C1(Cc2coc(-c3ccc(F)cc3)n2)C2CC3CC(C2)CC1C3 (centres unmarked) [Example 55] | 2980 nM
O=C(O)C1CN(C(=O)C2CN(C(=O)CC3(Cc4ccccc4)C4CC5CC(C4)CC3C5)C2)C1 (centres unmarked) [Example 106] | 457 nM
O=C(C[C@]1(Cc2ccccc2)C2CC3CC1C[C@@](O)(C3)C2)N1CC(O)C1 [Example 122] | 253 nM
O=C(O)C1(CCc2ccccc2)C2CC3CC(C2)CC1C3 (centres unmarked) [Example 136] | 1150 nM
Cc1noc(C)c1CC1(C(=O)O)C2CC3CC(C2)CC1C3 (centres unmarked) [Example 140] | 651 nM
O=C(C[C@]1(c2ccc(F)cc2)C2CC3CC1C[C@@](C(=O)O)(C3)C2)N1CC(O)C1 [Example 181] | 128 nM
CC1(CC(=O)N2CC(NC(=O)OCc3ccccc3)C2)C2CC3CC1CC(C2)C3O (centres unmarked) [Example 183] | 182 nM
O=C(O)C(C(=O)N1CC(O)C1)C1(c2ccc(F)cc2)C2CC3CC(C2)CC1C3 (centres unmarked) [Example 190] | 9120 nM
COC(=O)NC1CN(C(=O)C[C@]2(c3ccc(F)cc3)C3CC4CC2C[C@](C(N)=O)(C4)C3)C1 [Example 210] | 316 nM
COC(=O)NC1CN(C(=O)CC2(c3ccc(F)cc3)C3CC4CC2CC(C3)O4)C1 (centres unmarked) [Example 235] | 520 nM
CNC(=O)OC1CN(C(=O)CC2(c3ccc(F)cc3)C3CC4CC2CC(C3)O4)C1 (centres unmarked) [Example 236] | 274 nM
CS(=O)(=O)NC(=O)C1CN(C(=O)CC2(c3ccccc3)C3CC4CC2CC(C3)C4O)C1 (centres unmarked) [Example 250] | 1720 nM
CCN(CC)C(=O)CC1(c2ccc(F)cc2)C2CC3CC1CC(F)(C3)C2 (centres unmarked) [Example 307] | 383 nM

Now from value to molecule:

IC50 | SMILES
8.8 nM | CNC(=O)OC1CN(C(=O)CC2(c3ccccc3)C3CC4CC2CC(C3)C4O)C1 (single isomer, unassigned) [Example 242]
75 nM | O=C(NCc1nnn[nH]1)OC1CN(C(=O)CC2(c3ccccc3)C3CC4CC2CC(C3)C4O)C1 (single isomer, unassigned) [Example 259]
6.1 nM | O=C(CC1(c2ccccc2)C2CC3CC1CC(C2)C3O)N1CC(CO)C1 (single isomer, unassigned) [Example 265]
16 nM | O=C(CC1(c2ccccc2)C2CC3CC1CC(C2)C3O)N1C[C@H](O)CO1 (single isomer, unassigned) [Example 270]
2.4 nM | O=C(CC1(c2ccc(F)cc2)C2CC3CC(C2)CC1C3)N1CC[C@H](O)C1 (single isomer, unassigned) [Example 302]
21 nM | CNC(=O)OC1CN(C(=O)C[C@]2(c3ccc(F)cc3)C3CC4CC2C[C@](C(N)=O)(C4)C3)C1 [Example 32]
15 nM | O=C(N1CC(O)C1)C1(Cc2ccccc2Cl)C2CC3CC(C2)CC1C3 (centres unmarked) [Example 37]
97 nM | O=C(O)CC1(Cc2ccccc2)C2CCCC1CCC2 (centres unmarked) [Example 49]
81 nM | COC(=O)C1CN1C(=O)CC1(c2ccc(F)cc2)C2CC3CC(C2)CC1C3 (centres unmarked) [Example 79]
1.6 nM | C=CCO[C@]12CC3CC(C1)[C@](CC(=O)N1CC(O)C1)(c1ccc(F)cc1)C(C3)C2 [Example 98]
90 nM | O=C(O)COC1CN(C(=O)CC2(c3ccc(F)cc3)C3CC4CC(C3)CC2C4)C1 (centres unmarked) [Example 117]
15 nM | O=C(O)C1(Cc2cccc(F)c2)C2CC3CC(C2)CC1C3 (centres unmarked) [Example 132]
30 nM | C=C1CC2CCC(C1)C2(CC(=O)O)c1ccc(F)cc1 (centres unmarked) [Example 134]
20 nM | O=C(C[C@]1(Cc2ccccc2Cl)C2CC3CC1C[C@](O)(C3)C2)N1CC(O)C1 [Example 167]
1 nM | O=C(CC1(c2ccc(F)cc2)C2CC3CC(C2)CC1C3)N1CC(Oc2ccccc2)C1 (centres unmarked) [Example 174]
2.4 nM | N#Cc1ccc(OC2CN(C(=O)CC3(c4ccc(F)cc4)C4CC5CC(C4)CC3C5)C2)nc1 (centres unmarked) [Example 182]
121 nM | CC(C(=O)N1CC(O)C1)C1(c2ccc(F)cc2)C2CC3CC(C2)CC1C3 (centres unmarked) [Example 188]
127 nM | CNC(=O)NC1CN(C(=O)CC2(c3ccccc3)C3CC4CC2CC(C3)C4O)C1 (centres unmarked) [Example 212]
67 nM | CNC(=O)OC1CN(C(=O)C2(Cc3ccc(Cl)cc3)C3CC4CC(C3)CC2C4)C1 (centres unmarked) [Example 240]
16 nM | CC(C)(O)CNC(=O)OC1CN(C(=O)CC2(c3ccccc3)C3CC4CC2CC(C3)C4O)C1 (centres unmarked) [Example 243]
3 nM | O=C(CC1(c2ccccc2)C2CC3CC1CC(C2)C3O)N1CCSC1 (centres unmarked) [Example 247]
2.8 nM | CC(C)c1ccc(C2(CC(=O)N3CC(O)C3)C3CC4CC2CC(C3)C4O)cc1 (centres unmarked) [Example 292]
4.7 nM | O=C(CC1(c2ccc(F)cc2)C2CC3CC(C2)CC1C3)N1CCC(OCc2ccccc2)C1 (centres unmarked) [Example 303]
25 nM | CN(CCO)C(=O)CC1(c2ccc(F)cc2)C2CC3CC(C2)CC1C3 (centres unmarked) [Example 304]
28 nM | O=C(NC1CCN(C(=O)CC2(c3ccc(F)cc3)C3CC4CC(C3)CC2C4)C1)OCc1ccccc1 (centres unmarked) [Example 305]

Same assay, conditions: read-out: h HSD1 IC50; human microsomes, 40 nM 3H-cortisone, 4 hrs at room temperature

IC50 | SMILES
8.3 nM | O=C(CC1(c2ccc(F)cc2)C2CCCC1CC(O)C2)N1CC(O)C1 (centres unmarked) [Example 23, 2-(9-(4-Fluorophenyl)-3-hydroxybicyclo[3.3.1]nonan-9-yl)-1-(3-hydroxyazetidin-1-yl)ethanone]
10 nM | Cn1nnc(C2CN(C(=O)CC3(c4ccccc4)C4CC5CC3CC(C4)C5O)C2)n1 (centres unmarked) [Example 28]
196 nM | Cc1nnc(C2CN(C(=O)CC3(c4ccccc4)C4CC5CC3CC(C4)C5O)C2)o1 (centres unmarked) [Example 34]
14 nM | Cc1nnc(COC2CN(C(=O)CC3(c4ccccc4)C4CC5CC3CC(C4)C5O)C2)o1 (centres unmarked) [Example 36]
105 nM | CS(=O)(=O)NC1CN(C(=O)CC2(Cc3ccccc3)C3CC4CC2CC(C3)C4O)C1 (centres unmarked) [Example 195]
44 nM | CC1(CC(=O)N2CC(O)(c3ccc(F)cc3)C2)C2CC3CC1CC(C2)C3O (centres unmarked) [Example 213]
5.1 nM | CNC(=O)OCC1CN(C(=O)CC2(c3ccccc3)C3CC4CC2CC(C3)C4O)C1 (centres unmarked) [Example 216]

Tested on: hepatic glucose production
Experiment: not given
Details: patients with type 2 diabetes, seven days, versus placebo; cited from earlier work

SMILES | hepatic glucose production
CC1(C)[C@@H](OC(=O)CCC(=O)O)CC[C@]2(C)[C@H]3C(=O)C=C4[C@@H]5C[C@@](C)(C(=O)O)CC[C@]5(C)CC[C@@]4(C)[C@]3(C)CC[C@@H]12 [carbenoxolone] | decrease in hepatic glucose production

Target: T1, 11beta-HSD1 (Mus musculus, UniProt P50172)
T1 construct: from tissue; host or cells: whole animal: diet induced obese (DIO) mice, Jackson Laboratory
T1 sequence (P50172 whole entry): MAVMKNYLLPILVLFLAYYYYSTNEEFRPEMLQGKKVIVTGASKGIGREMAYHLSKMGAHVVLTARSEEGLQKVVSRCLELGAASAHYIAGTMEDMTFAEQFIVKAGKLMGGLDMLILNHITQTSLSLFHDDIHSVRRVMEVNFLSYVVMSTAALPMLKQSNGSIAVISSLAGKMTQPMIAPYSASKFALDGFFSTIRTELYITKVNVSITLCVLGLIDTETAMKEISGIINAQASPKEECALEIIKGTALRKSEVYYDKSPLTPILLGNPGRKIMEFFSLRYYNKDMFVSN
Experiment: In vivo inhibition of 11beta-HSD1: DHC administration to DIO mice, plasma corticosterone AUC
Details: 30 mpK, oral, DHC 10 mg/kg 60 minutes after compound

% inhibition | SMILES
65% | CNC(=O)OC1CN(C(=O)CC2(c3ccccc3)C3CC4CC2CC(C3)C4O)C1 (single isomer, unassigned) [Example 242]
67% | O=C(CC1(c2ccc(F)cc2)C2CC3CC1CC(C2)C3O)N1CC(O)C1 (centres unmarked) [Example 217]
